Several values for one entry are separate records, joined by “and”; a condition that tells them apart may be missing. Identical values can stand only once. Like-named read-outs stand apart in the source and are kept apart here.
How the values were obtained:
Assay in all cases: Synergy test, high resolution MIC microtiter plate assay
Type in all cases: cell-based
[1] = system: Aspergillus niger (A. niger—ATCC 16404); conditions: for MIC: Aspergillus niger, read-out: MIC of component acting alone (end point); for MIC of component acting alone (end point): A. niger, Ag-polymer on active silver ion basis
Description: (§1) One measure of synergism is the industrially accepted method described by Kull, F. C.; Eisman, P. C.; Sylwestrowicz, H. D. and Mayer, R. L., in Applied Microbiology 9:538-541 (1961), using the ratio determined by the formula: Ca/CA+Cb/CB=Synergy Index (“SI”) wherein:
(§2) CA=concentration of compound A (first component) in ppm, acting alone, which produced an end point (MIC of Compound A).
(§3) Ca=concentration of compound A in ppm, in the mixture, which produced an end point.
(§4) CB=concentration of compound B (second component) in ppm, acting alone, which produced an end point (MIC of Compound B).
(§5) Cb=concentration of compound B in ppm, in the mixture, which produced an end point.
(§6) When the sum of Ca/CA and Cb/CB is greater than one, antagonism is indicated. […] The lower the SI, the greater the synergy shown by that particular mixture. The minimum inhibitory concentration (MIC) of an antimicrobial compound is the lowest concentration tested under a specific set of conditions that prevents the growth of added microorganisms.
(§7) Synergy tests were conducted using standard microtiter plate assays with media designed for optimal growth of the test microorganism. Soybean Casein Digest Broth (Tryptic Soy Broth, TSB medium) or minimal salt medium supplemented with 0.2% glucose and 0.1% yeast extract (M9GY medium) was used for testing bacteria; Potato Dextrose Broth (PDB medium) was used for testing yeast and mold. In this method, a wide range of combinations of microbicides was tested by conducting high resolution MIC assays in the presence of various concentrations of the biocides. High resolution MICs were determined by adding varying amounts of microbicide to one column of a microtitre plate and doing subsequent ten-fold dilutions using an automated liquid handling system.
(§8) The bacteria were used at a concentration of about 1-6×10^6 bacteria per mL and the yeast and mold at 1-5×10^5 fungi per mL. These microorganisms are representative of natural contaminants in many consumer and industrial applications. […] (yeast and mold) or 30° C. (bacteria).

[2] = system: Pseudomonas aeruginosa (P. aeruginosa—ATCC #15442); conditions: for MIC of component acting alone (end point): P. aeruginosa, Ag-polymer on active silver ion basis
Description: as §1, §2, §3, §4, §5, §6, §7, §8

[3] = system: Staphylococcus aureus (S. aureus—ATCC #6538); conditions: for MIC: Staphylococcus aureus, read-out: MIC of component acting alone (end point); for MIC of component acting alone (end point): S. aureus, Ag-polymer on active silver ion basis
Description: as §1, §2, §3, §4, §5, §6, §7, §8

[4] = system: Candida albicans (C. albicans—ATCC 10231); conditions: for MIC: Candida albicans, read-out: MIC of component acting alone (end point); for MIC of component acting alone (end point): C. albicans, Ag-polymer on active silver ion basis; for Ca (Component A in combination): Hydrogen Peroxide combined with Ag-polymer formulation
Description: as §1, §2, §3, §4, §5, §6, §7
(§9) […]. The bacteria were used at a concentration of about 1-6×10^6 bacteria per mL and the yeast and mold at 1-5×10^5 fungi per mL. These microorganisms are representative of natural contaminants in many consumer and industrial applications. […] (yeast and mold) or 30° C. (bacteria).
(§10) The end point values in the following examples for the silver-polymer complex are reported on an active silver ion basis.

[5] = system: Samonella choleraesuis (S. choleraesuis—ATCC #10708); conditions: S. choleraesuis, contact time 48 hour; Ag-polymer on active silver ion basis
Description: as §1, §2, §3, §4, §5, §6, §7
The synergy of the combinations of the present invention was determined against four bacteria, gram positive Staphylococcus aureus (S. aureus—ATCC #6538) and gram negative Pseudomonas aeruginosa (P. aeruginosa—ATCC #15442), Samonella choleraesuis (S. choleraesuis—ATCC #10708) and Esherichia coli (E. coli—ATCC #8739), a yeast, Candida albicans (C. albicans—ATCC 10231), and a mold, Aspergillus niger (A. niger—ATCC 16404). The bacteria were used at a concentration of about 1-6×10^6 bacteria per mL and the yeast and mold at 1-5×10^5 fungi per mL. These microorganisms are representative of natural contaminants in many consumer and industrial applications. […] (yeast and mold) or 30° C. (bacteria).
as §10

[6] = system: Esherichia coli (E. coli—ATCC #8739); conditions: Ag-polymer on active silver ion basis
Description: as §1, §2, §3, §4, §5, §6, §7, §9, §10

[7] = Table 13, 3-Iodo-2-propynyl butylcarbamate alone, contact time 24 hour
[8] = Table 13, 3-Iodo-2-propynyl butylcarbamate alone, contact time 48 hour
[9] = Sodium hypochlorite (as Free Cl2) combined with Ag-polymer formulation, contact time 48 hour
[10] = Table 10, Sodium hypochlorite alone, as Free Cl2, contact time 24 hour
[11] = Table 10, Sodium hypochlorite alone, as Free Cl2, contact time 48 hour
[12] = Hydrogen Peroxide combined with Ag-polymer formulation, contact time 24 hour
[13] = Table 9, Hydrogen Peroxide alone, contact time 24 hour
[14] = Table 9, Hydrogen Peroxide alone, contact time 48 hour
[15] = Table 11, Glutaraldehyde alone, contact time 24 hour
[16] = Table 11, Glutaraldehyde alone, contact time 48 hour
[17] = 5-Chloro-2-(2,4-dichlorophenoxy)phenol combined with Ag-polymer formulation, contact time 48 hour
[18] = Table 12, 5-Chloro-2-(2,4-dichlorophenoxy)phenol alone, contact time 24 hour
[19] = Table 12, 5-Chloro-2-(2,4-dichlorophenoxy)phenol alone, contact time 48 hour

CCCCNC(=O)OCC#CI [3-Iodo-2-propynyl butylcarbamate]
Ca (Component A alone) ([1]; Table 13, 3-Iodo-2-propynyl butylcarbamate alone, contact time 3 days): 0.4 | Ca (Component A alone) ([1]; Table 13, 3-Iodo-2-propynyl butylcarbamate alone, contact time 7 days): 0.8 | Ca (Component A in combination) ([2]; 3-Iodo-2-propynyl butylcarbamate combined with Ag-polymer formulation, contact time 24 hour): 850 | Ca (Component A in combination) ([2]; 3-Iodo-2-propynyl butylcarbamate combined with Ag-polymer formulation, contact time 48 hour): 1050 | Ca (Component A alone) [2, 7]: 1050 | Ca (Component A alone) [2, 8]: 1300 | Ca (Component A alone) [3, 7]: 14 | Ca (Component A alone) [3, 8]: 14

Cn1sccc1=O [MIT, 2-methyl-4-isothiazolin-3-one, reference compound]
MIC ([1]; ATCC16404, 72 h): 493 µg/mL | MIC ([1]; ATCC16404, 168 h): 603 µg/mL | MIC ([2]; Pseudomonas aeruginosa, ATCC15442, 48 h, read-out: MIC of component acting alone (end point)): 24.7 µg/mL | MIC ([3]; ATCC6538, 24 h): 34.5 µg/mL | MIC ([3]; ATCC6538, 48 h): 34.5 µg/mL | MIC ([4]; ATCC10231, 24 h): 288 µg/mL | MIC ([4]; ATCC10231, 48 h): 403 µg/mL

OCl [Sodium hypochlorite]
Ca (Component A alone) ([1]; Table 10, Sodium hypochlorite alone, as Free Cl2, contact time 3 days): 26 | Ca (Component A alone) ([1]; Table 10, Sodium hypochlorite alone, as Free Cl2, contact time 7 days): 35 | Ca (Component A in combination) ([2]; Sodium hypochlorite (as Free Cl2) combined with Ag-polymer formulation, contact time 24 hour): 0.5 | Ca (Component A in combination) [2, 9]: 0.7 | Ca (Component A alone) [2, 10]: 0.7 | Ca (Component A alone) [2, 11]: 0.9 | Ca (Component A in combination) [3, 9]: 0.5 | Ca (Component A alone) [3, 10]: 0.4 | Ca (Component A alone) [3, 11]: 0.7 | Ca (Component A alone) [4, 10]: 0.9 | Ca (Component A alone) [4, 11]: 2

O=c1[nH]sc2ccccc12 [Benzisothiazolin-3-one, reference compound]
MIC of component acting alone (end point) ([1]; contact time 3 days): 43 ppm | MIC of component acting alone (end point) ([1]; contact time 7 days): 53 ppm | MIC of component acting alone (end point) ([2]; contact time 24 hour): 4 ppm | MIC of component acting alone (end point) ([2]; contact time 48 hour): 7 ppm | MIC of component acting alone (end point) ([3]; contact time 24 hour): 20 ppm | MIC of component acting alone (end point) ([3]; contact time 48 hour): 20 ppm | MIC of component acting alone (end point) ([4]; contact time 24 hour): 30 ppm | MIC of component acting alone (end point) ([4]; contact time 48 hour): 30 ppm

C12-C16 alkyl dimethylbenzylammonium chloride [reference compound]
MIC of component acting alone (end point) [5]: 6.9 ppm | MIC of component acting alone (end point) ([1]; contact time 3 days): 194 ppm | MIC of component acting alone (end point) ([1]; contact time 7 days): 603 ppm | MIC of component acting alone (end point) ([3]; contact time 24 hour): 19.4 ppm | MIC of component acting alone (end point) ([3]; contact time 48 hour): 19.4 ppm | MIC of component acting alone (end point) ([4]; contact time 24 hour): 40.3 ppm | MIC of component acting alone (end point) ([4]; contact time 48 hour): 98 ppm | MIC of component acting alone (end point) ([6]; contact time 48 hour): 4.9 ppm

OO [Hydrogen Peroxide]
Ca (Component A in combination) ([1]; Hydrogen Peroxide combined with Ag-polymer formulation, contact time 7 days): 1300 and 1050 | Ca (Component A alone) ([1]; Table 9, Hydrogen Peroxide alone, contact time 3 days): 1300 | Ca (Component A alone) ([1]; Table 9, Hydrogen Peroxide alone, contact time 7 days): 1750 | Ca (Component A in combination) [2, 12]: 255 | Ca (Component A in combination) ([2]; Hydrogen Peroxide combined with Ag-polymer formulation, contact time 48 hour): 390 and 315 and 255 | Ca (Component A alone) [2, 13]: 315 | Ca (Component A alone) [2, 14]: 525 | Ca (Component A in combination) [3, 12]: 53 and 39 | Ca (Component A alone) [3, 13]: 66 | Ca (Component A alone) [3, 14]: 180 | Ca (Component A in combination) ([4]; contact time 24 hour): 105 and 85 | Ca (Component A in combination) ([4]; contact time 48 hour): 85 | Ca (Component A alone) [4, 13]: 130 | Ca (Component A alone) [4, 14]: 130

O=CCCCC=O [Glutaraldehyde]
Ca (Component A in combination) ([1]; Glutaraldehyde combined with Ag-polymer formulation, contact time 3 days): 425 | Ca (Component A in combination) ([1]; Glutaraldehyde combined with Ag-polymer formulation, contact time 7 days): 525 | Ca (Component A alone) ([1]; Table 11, Glutaraldehyde alone, contact time 3 days): 525 | Ca (Component A alone) ([1]; Table 11, Glutaraldehyde alone, contact time 7 days): 650 | Ca (Component A in combination) ([2]; Glutaraldehyde combined with Ag-polymer formulation, contact time 24 hour): 13 | Ca (Component A in combination) ([2]; Glutaraldehyde combined with Ag-polymer formulation, contact time 48 hour): 16 | Ca (Component A alone) [2, 15]: 16 | Ca (Component A alone) [2, 16]: 20 | Ca (Component A alone) [3, 15]: 13 | Ca (Component A alone) [3, 16]: 20 | Ca (Component A alone) [4, 15]: 88 | Ca (Component A alone) [4, 16]: 88

CC(C)(C)CC(C)(C)c1ccc(OCCOCC[N+](C)(C)Cc2ccccc2)cc1.[Cl-] [diisobutylphenoxyethoxyethyl dimethylbenzylammonium chloride, reference compound]
MIC of component acting alone (end point) ([1]; contact time 7 days): 40.3 ppm | MIC of component acting alone (end point) ([3]; contact time 24 hour): 28.8 ppm | MIC of component acting alone (end point) ([3]; contact time 48 hour): 40.3 ppm | MIC of component acting alone (end point) ([4]; contact time 48 hour): 28.8 ppm | MIC of component acting alone (end point) ([6]; contact time 24 hour): 19.4 ppm

C9-C15 alkyltolylmethyltrimethylammonium chloride [reference compound]
MIC of component acting alone (end point) ([1]; contact time 7 days): 493 ppm | MIC of component acting alone (end point) ([2]; contact time 24 hour): 19.4 ppm | MIC of component acting alone (end point) ([2]; contact time 48 hour): 19.4 ppm | MIC of component acting alone (end point) ([3]; contact time 24 hour): 69 ppm | MIC of component acting alone (end point) ([4]; contact time 24 hour): 98 ppm | MIC of component acting alone (end point) ([6]; contact time 24 hour): 6 ppm | MIC of component acting alone (end point) ([6]; contact time 48 hour): 6 ppm

Oc1cc(Cl)ccc1Oc1ccc(Cl)cc1Cl [5-Chloro-2-(2,4-dichlorophenoxy)phenol]
Ca (Component A in combination) ([1]; 5-Chloro-2-(2,4-dichlorophenoxy)phenol combined with Ag-polymer formulation, contact time 3 days): 7 | Ca (Component A alone) ([1]; Table 12, 5-Chloro-2-(2,4-dichlorophenoxy)phenol alone, contact time 3 days): 9 | Ca (Component A alone) ([1]; Table 12, 5-Chloro-2-(2,4-dichlorophenoxy)phenol alone, contact time 7 days): 30 | Ca (Component A in combination) ([2]; 5-Chloro-2-(2,4-dichlorophenoxy)phenol combined with Ag-polymer formulation, contact time 24 hour): 20 | Ca (Component A in combination) [2, 17]: 30 and 20 | Ca (Component A alone) [2, 18]: 30 | Ca (Component A alone) [2, 19]: 43 | Ca (Component A in combination) [3, 17]: 9 and 7 | Ca (Component A alone) [3, 18]: 9 | Ca (Component A alone) [3, 19]: 11
